Experimental data taken from patent publication US10870627B2, “Salt of quinazoline derivative, preparation method therefor and application thereof” (SHANGHAI PHARMACEUTICALS HOLDING CO., LTD., priority 2016, dated 2020).

What was measured:
[1] = Solubility determined by visual inspection; assay type: physicochemical; settings: room temperature
Procedure: The solubility was determined as follows: a certain amount of the sample was weighed and the solvent was added thereto in portions with stirring or ultrasonication to accelerate dissolution; the amount of the consumed solvent was recorded once the sample was dissolved. […] A certain volume of the solution was taken, followed by filtration, concentration, dissolved with a certain volume of other suitable solvents and subjected to HPLC measurement to obtain accurate data of the solubility.

[2] = Comparison of absorption in rats after intragastric administration of free base and salt (plasma pharmacokinetics); assay type: in vivo, SD rats
Procedure: The blood sample was centrifuged at 8000 RPM for 5 minutes, followed by the isolation of the upper plasma. […] 200 μL of the supernatant was taken and centrifuged again for 10 minutes. 50 μL of the supernatant was injected in a 96-well plate. The plasma drug concentration was determined by LC/MS/MS, and the corresponding pharmacokinetic parameters were calculated.

[3] = Solid-state stability test; assay type: physicochemical
Procedure: An appropriate amount of the drugs were placed in the surface dish, spread to a thickness of 3-5 mm, and exposed in high temperature, high temperature and high humidity, illumination and oxidation conditions for 10 days respectively, and the solid-state characterization was performed. The purity and the number of impurities 0.05%) of the samples for testing were determined by HPLC, and compared with the samples on day 0. The exposure conditions are:
High temperature (an oven with T=60° C.);
Illumination (25° C., a 4500±500 lx light incubator);
Oxidation (25° C., a closed container containing urea hydrogen peroxide).

[4] = Solution stability test; assay type: physicochemical
Procedure: About 15 mg of the sample was weighed accurately, dissolved with 25 mL of the test solvent (10% aqueous acetone solution, pH=4.0 B-R buffer solution, SGF, SIF) via ultrasound for 20 minutes. The solution was divided into four portions and placed in the clear glass vials, followed by sealing. The samples were exposed in different environments and sampled on day 0 and day 5. The purity of each sample was determined by HPLC, and the number of impurities greater than 0.05% was calculated and compared with the samples on day 0. The exposure environments are:
Room temperature and light-proof test, 25° C.; […]
Illumination experiment (4500±500 lx), 25° C.;
Oxidation experiment (3% v/v hydrogen peroxide), 25° C.

[5] = Dynamic vapor sorption (DVS), isothermal absorption analysis; assay type: physicochemical
Procedure: In the present invention, according to the common knowledge in the art, the amount of water absorption obtained from the dynamic vapor sorption (DVS) pattern is expressed in percentage by weight.
The isothermal absorption analysis (DVS) data was collected from TA Instruments Q5000 TGA. The software for instrument control was Thermal Advantage and software for analysis was Universal Analysis. 1-10 mg of the sample was generally placed in a platinum crucible, and the weight change of the sample during the relative humidity changing from 20% to 80% was recorded by the TA software. Depending on the specifics of the sample, different steps of sample adsorption and desorption were also involved.

[6] = SD rats, 20 μmol/kg, intragastric administration, plasma
[7] = 10 d, High temperature (oven, T=60° C.)
[8] = 10 d, High temperature and high humidity (40° C., 75% relative humidity)
[9] = 10 d, Illumination (25° C., 4500±500 lx)
[10] = 10 d, Oxidation (25° C., closed container with urea hydrogen peroxide)
[11] = 10% aqueous acetone solution, 5 d, High temperature
[12] = 10% aqueous acetone solution, 5 d, High temperature and high humidity
[13] = 10% aqueous acetone solution, 5 d, Oxidation (3% v/v hydrogen peroxide, 25° C.)
[14] = B-R Buffer solution (pH=4.0), 5 d, High temperature
[15] = B-R Buffer solution (pH=4.0), 5 d, High temperature and high humidity
[16] = B-R Buffer solution (pH=4.0), 5 d, Illumination (4500±500 lx, 25° C.)
[17] = B-R Buffer solution (pH=4.0), 5 d, Oxidation (3% v/v hydrogen peroxide, 25° C.)
[18] = SGF, 5 d, High temperature and high humidity
[19] = SIF, 5 d, High temperature and high humidity
[20] = SIF, 5 d, Illumination (4500±500 lx, 25° C.)
[21] = SIF, 5 d, Oxidation (3% v/v hydrogen peroxide, 25° C.)

C=C(F)C(=O)Nc1cc2c(Nc3ccc(F)c(Cl)c3)ncnc2cc1OCCCN1CCOCC1.O=S(=O)(O)CCS(=O)(=O)O
visual solubility in water [1]: 1000 to 2000 µg/mL
AUC (0-t) [2, 6]: 195.56 ± 84.51 µM·min
MRT (0-T) [2, 6]: 5.3317 ± 0.9937 h
Tmax [2, 6]: 1.333 ± 0.2887 h
t1/2 [2, 6]: 3.744 ± 0.9165 h
Cmax ([2]; SD rats, 20 μmol/kg, intragastric administration, plasma, listed as monoethanedisulfonate): 390 ± 160 nM
AUC (0-t) and Cmax, comparison in words ([2]; rats, oral, same dose, free base and 6 salts): relatively low
Number of impurities ([3]; 0 d): 2
Purity ([3]; 0 d): 99.0%
Number of impurities [3, 7]: 2
Purity [3, 7]: 99.0%
Number of impurities [3, 8]: 2
Purity [3, 8]: 99.0%
Number of impurities [3, 9]: 2
Purity [3, 9]: 99.0%
Number of impurities [3, 10]: 2
Purity [3, 10]: 99.0%
Number of impurities ([4]; 10% aqueous acetone solution, 0 d, impurities greater than 0.05%): 1
Number of impurities [4, 11]: 1
Purity [4, 11]: 99.0%
Number of impurities [4, 12]: 3
Purity [4, 12]: 98.1%
Number of impurities ([4]; 10% aqueous acetone solution, 5 d, Illumination (4500±500 lx, 25° C.)): 1
Number of impurities [4, 13]: 7
Purity [4, 13]: 70.8%
Purity ([4]; B-R Buffer solution (pH=4.0), 0 d): 99.0%
Number of impurities ([4]; B-R Buffer solution (pH=4.0), 0 d, impurities greater than 0.05%): 1
Number of impurities [4, 14]: 1
Purity [4, 14]: 99.0%
Number of impurities [4, 15]: 3
Purity [4, 15]: 97.7%
Number of impurities [4, 16]: 1
Purity [4, 16]: 99.0%
Number of impurities [4, 17]: 15
Purity [4, 17]: 44.0%
Purity ([4]; SGF, 0 d): 99.0%
Number of impurities ([4]; SGF, 0 d, impurities greater than 0.05%): 1
Number of impurities ([4]; SGF, 5 d, High temperature): 2
Number of impurities [4, 18]: 2
Purity [4, 18]: 94.5%
Number of impurities ([4]; SGF, 5 d, Illumination (4500±500 lx, 25° C.)): 2
Number of impurities ([4]; SGF, 5 d, Oxidation (3% v/v hydrogen peroxide, 25° C.)): 3
Purity ([4]; SIF, 0 d): 74.8%
Number of impurities ([4]; SIF, 0 d, impurities greater than 0.05%): 2
Number of impurities ([4]; SIF, 5 d, High temperature): 1
Purity ([4]; SIF, 5 d, High temperature): 50.0%
Number of impurities [4, 19]: 6
Purity [4, 19]: 36.5%
Number of impurities [4, 20]: 13
Purity [4, 20]: 25.2%
Number of impurities [4, 21]: 7
Purity [4, 21]: 30.8%
hygroscopicity, in words [5]: not easy to absorb moisture
